Measured values: patent publication US8476430B2, “Fused heterocyclic compounds useful as kinase modulators” (Bristol-Myers Squibb Company, priority 2008, dated 2013)

What was measured:
Ramos RA1 B cells = test: Ramos FLIPR assay; assay type: cell-based; settings: Homo sapiens, inhibition of peak intracellular calcium after F(ab')2 anti-IgM/IgG stimulation, read-out: Human Ramos Cell FLIPR (IC50 μM)
Experimental: Ramos RA1 B cells (ATCC® CRL-1596) at a density of 2×10^6 cells/ml in RPMI minus phenol red (Invitrogen 11835-030) and 50 mM HEPES (Invitrogen 15630-130) containing 0.1% BSA (Sigma A8577) were added to one half volume of calcium loading buffer (BD bulk kit for probenecid sensitive assays, #640177) and incubated at room temperature in the dark for 1 hour. Dye-loaded cells were pelleted (Beckmann GS-CKR, 1200 rpm, RT, 5 minutes) and resuspended in RT RPMI minus phenol red with 50 mM HEPES and 10% FBS to a density of 1×10^6 cells/ml. 150 μl aliquots (150,000/well) were plated into 96 well poly-D-lysine coated assay plates (BD 35 4640) and briefly centrifuged (Beckmann GS-CKR 800 rpm, 5 minutes, without brake). 50 μal compound dilutions in 0.4% DMSO/RPMI minus phenol red+50 mM HEPES+10% FBS were added to the wells and the plate was incubated at RT in the dark for 1 hour. Assay plate was briefly centrifuged as above prior to measuring calcium levels.
Using the FLIPR1 (Molecular devices), cells were stimulated by adding 50 μl 200 μg/ml F(ab′)2 anti-IgM/IgG (Jackson ImmunoResearch 109-006-127) diluted in 1×HBSS (Invitrogen 14025-076), 50 mM HEPES, 0.1% BSA. Changes in intracellular calcium concentrations were measured for 180 seconds and percent inhibition was determined relative to peak calcium levels seen in the presence of F(ab′)2 anti-IgM/IgG only.

human recombinant Btk = target: T1, human recombinant Btk (Homo sapiens, UniProt Q06187); test: Human recombinant Btk enzyme assay; assay type: biochemical; settings: human recombinant Btk 1 nM, ATP 20 μM, 60 min room temperature
T1 construct: purchased Invitrogen Corporation
T1 sequence (Q06187 whole entry): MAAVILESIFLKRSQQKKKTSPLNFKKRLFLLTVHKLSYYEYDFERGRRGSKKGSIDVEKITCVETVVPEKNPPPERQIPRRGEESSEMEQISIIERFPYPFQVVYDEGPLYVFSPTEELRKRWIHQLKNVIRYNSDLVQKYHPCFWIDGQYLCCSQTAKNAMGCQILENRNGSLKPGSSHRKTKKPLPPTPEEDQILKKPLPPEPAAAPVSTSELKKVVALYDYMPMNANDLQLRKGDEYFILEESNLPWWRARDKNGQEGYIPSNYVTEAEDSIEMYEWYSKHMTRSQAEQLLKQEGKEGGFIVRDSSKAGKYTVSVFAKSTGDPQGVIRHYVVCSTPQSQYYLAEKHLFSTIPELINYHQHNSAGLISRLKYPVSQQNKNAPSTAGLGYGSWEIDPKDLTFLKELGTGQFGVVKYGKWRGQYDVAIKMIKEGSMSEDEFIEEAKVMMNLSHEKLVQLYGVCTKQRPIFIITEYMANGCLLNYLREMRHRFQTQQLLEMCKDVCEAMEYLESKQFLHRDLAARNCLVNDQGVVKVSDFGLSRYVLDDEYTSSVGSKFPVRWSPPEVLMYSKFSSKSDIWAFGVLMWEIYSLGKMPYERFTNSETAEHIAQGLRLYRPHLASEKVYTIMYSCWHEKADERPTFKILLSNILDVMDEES
Experimental: Human Recombinant Btk Enzyme Assay
To V-bottom 384-well plates were added test compounds, human recombinant Btk (1 nM, Invitrogen Corporation), fluoresceinated peptide (1.5 μM), ATP (20 μM), and assay buffer (20 mM HEPES pH 7.4, 10 mM MgCl2, 0.015% Brij35 and 4 mM DTT in 1.6% DMSO), with a final volume of 30 μL. After incubating at room temperature for 60 min, the reaction was terminated by adding 45 μl of 35 mM EDTA to each sample. The reaction mixture was analyzed on the Caliper LABCHIP® 3000 (Caliper, Hopkinton, Mass.) by electrophoretic separation of the fluorescent substrate and phosphorylated product. Inhibition data were calculated by comparison to no enzyme control reactions for 100% inhibition and no inhibitor controls for 0% inhibition. Dose response curves were generated to determine the concentration required inhibiting 50% of kinase activity (IC50). Compounds were dissolved at 10 mM in dimethylsulfoxide (DMSO) and evaluated at eleven concentrations.

IC50 (Ramos RA1 B cells): 0.028 µM | IC50 (human recombinant Btk): 46 nM
SMILES: Cc1c(NC(=O)c2ccc(C(C)(C)C)cc2)cccc1-c1nc(Nc2ccc(C(=O)N3CCOCC3)cc2)c2nccn2n1 [Example 1, 4-tert-Butyl-N-(2-methyl-3-(4-(4-(morpholine-4-carbonyl)phenylamino)imidazo[1,2-f][1,2,4]triazin-2-yl)phenyl)benzamide]
